In assay [1] the target is T1, recombinant human fibroblast activation protein (FAP) (Homo sapiens, UniProt Q12884).
T1 sequence (Q12884 1-760): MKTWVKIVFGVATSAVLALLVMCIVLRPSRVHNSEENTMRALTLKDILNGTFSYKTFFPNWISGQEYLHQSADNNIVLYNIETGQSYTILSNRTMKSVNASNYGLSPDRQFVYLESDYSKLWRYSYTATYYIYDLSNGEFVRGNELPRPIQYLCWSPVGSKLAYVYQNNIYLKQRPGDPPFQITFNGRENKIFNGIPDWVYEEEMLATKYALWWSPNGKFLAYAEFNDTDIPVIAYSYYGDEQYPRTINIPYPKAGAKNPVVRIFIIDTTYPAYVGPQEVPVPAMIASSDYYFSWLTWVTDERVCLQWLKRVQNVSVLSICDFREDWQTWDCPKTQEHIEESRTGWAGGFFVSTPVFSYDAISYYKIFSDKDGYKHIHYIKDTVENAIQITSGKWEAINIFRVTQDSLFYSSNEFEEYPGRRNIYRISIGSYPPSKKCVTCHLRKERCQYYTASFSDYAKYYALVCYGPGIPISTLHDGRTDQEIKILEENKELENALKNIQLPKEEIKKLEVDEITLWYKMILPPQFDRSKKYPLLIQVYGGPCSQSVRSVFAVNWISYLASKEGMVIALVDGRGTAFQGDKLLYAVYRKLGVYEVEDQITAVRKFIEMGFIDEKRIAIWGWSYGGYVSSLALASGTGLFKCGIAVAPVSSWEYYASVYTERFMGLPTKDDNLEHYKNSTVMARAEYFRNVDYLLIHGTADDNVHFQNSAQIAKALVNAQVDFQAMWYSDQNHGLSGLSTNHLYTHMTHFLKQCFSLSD
Put plainly: Selective assay, protease inhibition (FAP). The class given is biochemical. To be noted: substrate Z-Gly-Pro-AMC. The protocol:
The specificity of the synthesized compounds against recombinant human dipeptidyl peptidase IV (DPPIV), fibroblast activation protein (FAP), or prolyl oligopeptidase (PREP) was expressed by their half-maximal inhibitory concentration (IC50) against the proteases.
1) The synthesized compound was dissolved in DMSO to a final concentration of 100 mM.
a) For FAP assay: The test compound was diluted to a 1 mM solution using a buffer of 50 mM Tris, 140 mM NaCl at pH 7.5.
2) The prepared 1 mM test compound solution was serially diluted (1:10) into a row of a 96-well plate using the corresponding buffer mentioned above.
3) The substrate was prepared as a DMSO stock solution (FAP and PREP: 2.5 mM Z-Gly-Pro-AMC (VWR, Cat. No. I-1145.0050BA) in DMSO; DPPIV: 100 mM Gly-Pro-AMC (VWR, Cat. No. 100042-646) in DMSO), and subsequently the substrate stock solution was diluted 20-fold using the corresponding buffer mentioned above.
4) The enzyme was diluted into the appropriate assay buffer. The final concentrations of DPPIV, FAP, and PREP were […], respectively. To each required well in columns 2-10, 180 μL was added separately. Column 1 (A, B, C) was prepared with 200 μL of the appropriate assay buffer as a control. […]
7) Fluorescence was measured at λex: 380, λem: 460. […]

Assay [2] concerns HT1080 8 #cells. In words: Cell competitive binding assay against ^177Lu-radiolabeled FAPi-46. The protocol: (1) HT1080 8 #cells in the logarithmic growth phase were prepared into a cell suspension, and the cell density was adjusted to 1×10^4/mL. 1 mL of the suspension was seeded into a 24-well cell culture plate. The plate was incubated overnight in a 37° C. incubator.
(2) The cell culture medium was aspirated, and the cells were washed once with PBS, followed by the addition of 975 μL of additive-free medium.
(3) To each well, 25 µL of ^177Lu-radiolabeled FAPi-46 (Nanchang Tanzhen Biotechnology Co., Ltd., CAS: 2374782-04-2) at a fixed concentration (final concentration in culture medium: 1.35 μCi/mL) and varying concentrations (final concentrations in culture medium: 1000 ng/mL, 100 ng/ml, 10 ng/ml, 1 ng/mL, 0.1 ng/ml, 0.01 ng/mL, 0.001 ng/mL, 0 ng/ml) of unlabeled test compounds JHH8, JHDB8, and JHH9 were added.
(4) The mixture was incubated on ice for 2 hours.
(5) The cells were washed three times with ice-cold PBS.
(6) The cells were lysed with 0.5 mL of 1 M sodium hydroxide, washed twice with 0.5 mL of PBS, and the sodium hydroxide solution (0.5 mL) and PBS solutions (0.5 mL×2) were collected for uptake counting.
The control compound was OncoFAP-DOTAGA (structural formula: […]
The cell competitive binding of compounds JHH5, JHH4, JHH10, JHH8, H4b, H5b, and H8b was tested in the same batch using the above method, and the experimental results are shown in Table 3 and FIG. 3.

Structures are written as SMILES. Like-named read-outs stand apart in the source and are kept apart here.

A word on the IC50: it is the midpoint of a concentration-inhibition curve. The EC50 is the midpoint of the concentration-response curve. Turning to `N#C[C@@H]1CC(F)(F)CN1C(=O)CNC(=O)c1cccc2c1CCN(C(=O)CCC(=O)NCCNC(=O)CCC(C(=O)O)N1CCN(CC(=O)O)CCN(CC(=O)O)CCN(CC(=O)O)CC1)C2` (stereo partly drawn) [JHH5], the IC50 in assay [1] was 10 to 100 nM. For the same compound, the EC50 in assay [2] (EC50 (ng/mL) converted with molecular weight, read-out: EC50) was 1.82 nM; in assay [2] (competition with ^177Lu-FAPi-46, on ice 2 hours) it was 1.726 ng/mL.
